System: ATF4 luciferase reporter in HEK293T cells
Experiment: ATF4-Luc assay (in vitro model of VWMD)
Assay type: cell-based, human
Conditions: HEK293T cells carrying the ATF4 luciferase reporter, 1 μg/mL tunicamycin, One Glo luminescence
Method in brief: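 Tunicamycin (1 μg/mL) stress with co-added compound for 7 hours in HEK293T cells stably carrying an ATF4 5′-UTR–luciferase reporter. EC50 values come from the luminescent signal (One Glo).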

Structure (SMILES) | EC50 (Homo sapiens, HEK-293T, 7 h) [nM] | EC50 (7 hours) [nM]
O=C(COc1ccc(Cl)c(F)c1)NC12CCC(n3cc(OCCOC(F)(F)F)cn3)(C1)C2 [Compound 595, 2-(4-chloro-3-fluorophenoxy)-N-(4-{4-[2-(trifluoromethoxy)ethoxy]-1H-pyrazol-1-yl}bicyclo[2.1.1]hexan-1-yl)acetamide] | 250 to 500 | 
O=C(NC12CC(n3cc(OCCOC(F)(F)F)cn3)(C1)C2)[C@H]1C[C@@H](O)c2cc(Cl)c(F)cc2O1 [Compound 413, (2R,4R)-6-chloro-7-fluoro-4-hydroxy-N-(3-{4-[2-(trifluoromethoxy)ethoxy]-1H-pyrazol-1-yl}bicyclo[1.1.1]pentan-1-yl)-3,4-dihydro-2H-1-benzopyran-2-carboxamide] | < 10 | 
O=C(NC12CC(n3cc(OCCCOC(F)(F)F)cn3)(C1)C2)[C@H]1C[C@H](O)c2cc(C(F)(F)F)c(F)cc2O1 [Compound 636, (2R,4S)-7-fluoro-4-hydroxy-N-(3-{4-[3-(trifluoromethoxy)propoxy]-1H-pyrazol-1-yl}bicyclo[1.1.1]pentan-1-yl)-6-(trifluoromethyl)-3,4-dihydro-2H-1-benzopyran-2-carboxamide] | < 10 | 
O=C(NC12CC(n3cc(-c4ccc(OC(F)F)nc4)cn3)(C1)C2)[C@@H]1C[C@@H](O)c2cc(Cl)ccc2O1 [Compound 332, (2S,4R)-6-chloro-N-(3-{4-[6-(difluoromethoxy)pyridin-3-yl]-1H-pyrazol-1-yl}bicyclo[1.1.1]pentan-1-yl)-4-hydroxy-3,4-dihydro-2H-1-benzopyran-2-carboxamide] | < 10 | 
O=C(NC12CC(n3cc(-c4ccc(C(F)F)cn4)cn3)(C1)C2)[C@H]1C[C@@H](O)c2cc(Cl)c(F)cc2O1 [Compound 569, (2R,4R)-6-chloro-N-(3-{4-[5-(difluoromethyl)pyridin-2-yl]-1H-pyrazol-1-yl}bicyclo[1.1.1]pentan-1-yl)-7-fluoro-4-hydroxy-3,4-dihydro-2H-1-benzopyran-2-carboxamide] | < 10 | 
O=C(NC12CC(n3cc(-c4ccc(OC(F)(F)F)cn4)cn3)(C1)C2)[C@@H]1C[C@@H](O)c2cc(Cl)c(F)cc2O1 [Compound 474, (2S,4R)-6-chloro-7-fluoro-4-hydroxy-N-(3-{4-[5-(trifluoromethoxy)pyridin-2-yl]-1H-pyrazol-1-yl}bicyclo[1.1.1]pentan-1-yl)-3,4-dihydro-2H-1-benzopyran-2-carboxamide] | < 10 | 
O=C(NC12CC(c3cnc(OCCCOC(F)(F)F)o3)(C1)C2)[C@H]1C[C@@H](O)c2cc(Cl)c(F)cc2O1 [Compound 417, (2R,4R)-6-chloro-7-fluoro-4-hydroxy-N-(3-{2-[3-(trifluoromethoxy)propoxy]-1,3-oxazol-5-yl}bicyclo[1.1.1]pentan-1-yl)-3,4-dihydro-2H-1-benzopyran-2-carboxamide] | < 10 | 
O=C(NC12CC(n3cc4c(n3)CN(C(=O)COC(F)(F)F)C4)(C1)C2)[C@H]1C[C@@H](O)c2cc(Cl)c(F)cc2O1 [Compound 511, (2R,4R)-6-chloro-7-fluoro-4-hydroxy-N-(3-{5-[(trifluoromethoxy)acetyl]-5,6-dihydropyrrolo[3,4-c]pyrazol-2(4H)-yl}bicyclo[1.1.1]pentan-1-yl)-3,4-dihydro-2H-1-benzopyran-2-carboxamide] | 10 to 50 | 
O=C(NC12CC(n3cnc(-c4ccc(OC(F)(F)F)c(F)c4F)c3)(C1)C2)[C@H]1C[C@@H](O)c2cc(Cl)ccc2O1 [Compound 391, (2R,4R)-6-chloro-N-(3-{4-[2,3-difluoro-4-(trifluoromethoxy)phenyl]-1H-imidazol-1-yl}bicyclo[1.1.1]pentan-1-yl)-4-hydroxy-3,4-dihydro-2H-1-benzopyran-2-carboxamide] | < 10 | 
COc1ccc2nn(C34CC(NC(=O)[C@H]5C[C@@H](O)c6cc(Cl)c(Cl)cc6O5)(C3)C4)cc2c1 [Compound 507, (2R,4R)-6,7-dichloro-4-hydroxy-N-[3-(5-methoxy-2H-indazol-2-yl)bicyclo[1.1.1]pentan-1-yl]-3,4-dihydro-2H-1-benzopyran-2-carboxamide] | < 10 | 
O=C(COc1ccc(Cl)c(F)c1)NC12CCC(n3cc(C(=O)N4CC[C@H](OC(F)(F)F)C4)cn3)(CC1)CC2 [Compound 624, 2-(4-chloro-3-fluorophenoxy)-N-(4-{4-[(3S)-3-(trifluoromethoxy)pyrrolidine-1-carbonyl]-1H-pyrazol-1-yl}bicyclo[2.2.2]octan-1-yl)acetamide] | < 10 | 
O=C(CO[C@H]1C[C@@H](OC(F)(F)F)C1)N[C@@H]1C[C@@H]2C[C@H]1C[C@H]2NC(=O)[C@H]1C[C@@H](O)c2cc(C(F)(F)F)c(F)cc2O1 [Compound 645, (2R,4R)-7-fluoro-4-hydroxy-N-[(1S,2R,4S,5R)-5-(2-{[(1s,3S)-3-(trifluoromethoxy)cyclobutyl]oxy}acetamido)bicyclo[2.2.1]heptan-2-yl]-6-(trifluoromethyl)-3,4-dihydro-2H-1-benzopyran-2-carboxamide] | < 10 | 
O=C(NC12CC(n3cc(OCCCOC(F)(F)F)cn3)(C1)C2)[C@H]1C[C@@H](O)c2cc(C(F)(F)F)ccc2O1 [Compound 435, (2R,4R)-4-hydroxy-N-(3-{4-[3-(trifluoromethoxy)propoxy]-1H-pyrazol-1-yl}bicyclo[1.1.1]pentan-1-yl)-6-(trifluoromethyl)-3,4-dihydro-2H-1-benzopyran-2-carboxamide] | < 10 | 
O=C(COc1ccc(Cl)c(F)c1)NC12CC(c3ccnc(OCCCOC(F)(F)F)c3)(C1)C2 [Compound 602, 2-(4-chloro-3-fluorophenoxy)-N-(3-{2-[3-(trifluoromethoxy)propoxy]pyridin-4-yl}bicyclo[1.1.1]pentan-1-yl)acetamide] |  | < 10
O=C(NC12CC(n3cc(-c4ccn(C(F)(F)F)n4)cn3)(C1)C2)[C@H]1C[C@@H](O)c2cc(Cl)ccc2O1 [Compound 556, (2R,4R)-6-chloro-4-hydroxy-N-{3-[1-(trifluoromethyl)-1H,1′H-[3,4′-bipyrazol]-1′-yl]bicyclo[1.1.1]pentan-1-yl}-3,4-dihydro-2H-1-benzopyran-2-carboxamide] | < 10 | 
O=C(COc1ccc(Cl)cc1O)NC12CC(n3cc([C@H]4C[C@@H](OC(F)(F)F)C4)nn3)(C1)C2 [Compound 618, 2-(4-chloro-2-hydroxyphenoxy)-N-(3-{4-[(1s,3s)-3-(trifluoromethoxy)cyclobutyl]-1H-1,2,3-triazol-1-yl}bicyclo[1.1.1]pentan-1-yl)acetamide] | 10 to 50 | 
O=C(NC12CC(n3cc(C(=O)N4CC[C@H](OC(F)(F)F)C4)cn3)(C1)C2)[C@H]1C[C@H](O)c2cc(Cl)ccc2O1 [Compound 585, (2R,4S)-6-chloro-4-hydroxy-N-(3-{4-[(3S)-3-(trifluoromethoxy)pyrrolidine-1-carbonyl]-1H-pyrazol-1-yl}bicyclo[1.1.1]pentan-1-yl)-3,4-dihydro-2H-1-benzopyran-2-carboxamide] | < 10 | 
O=C(NC12CC(n3cc(OCCOC(F)(F)F)cn3)(C1)C2)[C@H]1C[C@@H](O)c2cc(F)c(F)cc2O1 [Compound 429, (2R,4R)-6,7-difluoro-4-hydroxy-N-(3-{4-[2-(trifluoromethoxy)ethoxy]-1H-pyrazol-1-yl}bicyclo[1.1.1]pentan-1-yl)-3,4-dihydro-2H-1-benzopyran-2-carboxamide] | < 10 | 
O=C(NC12CC(n3cc(NCCOC(F)(F)F)cn3)(C1)C2)[C@H]1C[C@@H](O)c2cc(Cl)ccc2O1 [Compound 437, (2R,4R)-6-chloro-4-hydroxy-N-[3-(4-{[2-(trifluoromethoxy)ethyl]amino}-1H-pyrazol-1-yl)bicyclo[1.1.1]pentan-1-yl]-3,4-dihydro-2H-1-benzopyran-2-carboxamide] | 10 to 50 | 
O=C(N[C@H]1CC[C@H](n2cc(OCCOC(F)(F)F)cn2)CC1)[C@H]1C[C@@H](O)c2cc(Cl)c(Cl)cc2O1 [Compound 459, (2R,4R)-6,7-dichloro-4-hydroxy-N-[(1r,4R)-4-{4-[2-(trifluoromethoxy)ethoxy]-1H-pyrazol-1-yl}cyclohexyl]-3,4-dihydro-2H-1-benzopyran-2-carboxamide] | < 10 | 
O=C(COc1ccc(Cl)c(F)c1)NC12CC(n3cc(OCCCOC(F)(F)F)cn3)(C1)C2 [Compound 607, 2-(4-chloro-3-fluorophenoxy)-N-(3-{4-[3-(trifluoromethoxy)propoxy]-1H-pyrazol-1-yl}bicyclo[1.1.1]pentan-1-yl)acetamide] |  | < 10
O=C(NC12CC(n3cc(OCCOC(F)(F)F)cn3)(C1)C2)C1COc2cc(Cl)c(Cl)cc2O1 (stereo not shown) [Compound 458, 6,7-dichloro-N-(3-{4-[2-(trifluoromethoxy)ethoxy]-1H-pyrazol-1-yl}bicyclo[1.1.1]pentan-1-yl)-2,3-dihydro-1,4-benzodioxine-2-carboxamide] | 10 to 50 | 
O=C(CO[C@H]1C[C@@H](OC(F)(F)F)C1)NC12CCC(NC(=O)[C@H]3C[C@@H](O)c4cc(Cl)c(F)cc4O3)(CC1)C[C@@H]2O [Compound 488, (2R,4R)-6-chloro-7-fluoro-4-hydroxy-N-[(3S)-3-hydroxy-4-(2-{[(1s,3R)-3-(trifluoromethoxy)cyclobutyl]oxy}acetamido)bicyclo[2.2.2]octan-1-yl]-3,4-dihydro-2H-1-benzopyran-2-carboxamide] | < 10 | 
O=C(NC12CC(n3cc(-c4ccc(OC(F)(F)F)cn4)cn3)(C1)C2)[C@H]1C[C@H](O)c2cc(C(F)(F)F)c(F)cc2O1 [Compound 634, (2R,4S)-7-fluoro-4-hydroxy-N-(3-{4-[5-(trifluoromethoxy)pyridin-2-yl]-1H-pyrazol-1-yl}bicyclo[1.1.1]pentan-1-yl)-6-(trifluoromethyl)-3,4-dihydro-2H-1-benzopyran-2-carboxamide] | < 10 | 
CC(=O)N1CC=C(c2cnn(C34CC(NC(=O)[C@H]5C[C@@H](O)c6cc(Cl)ccc6O5)(C3)C4)c2)CC1 [Compound 340, (2R,4R)—N-{3-[4-(1-acetyl-1,2,3,6-tetrahydropyridin-4-yl)-1H-pyrazol-1-yl]bicyclo[1.1.1]pentan-1-yl}-6-chloro-4-hydroxy-3,4-dihydro-2H-1-benzopyran-2-carboxamide] | 50 to 250 | 
